The values below come from the supplement of paper PMC8960247.

Molecules are shown by their SMILES. Where a name gives a salt, the structure may show the parent alone. ± gives the standard error.

Test [1] concerns 621-102 (TSC2-deficient). The test is described as follows: relative viability vs DMSO (fraction); higher = less cytotoxic. The following applies: serum: 0.1% FBS, 72 h.
Test [2] deals with UMB1949 (TSC2-deficient). The test is described as above. The following applies: serum: 0.1% FBS, 72 h.
Test [3] concerns 621-102 (TSC2-deficient). Nature of the test: relative viability vs DMSO; higher = less cytotoxic. Conditions: serum: 10% FBS, 72 h.
In test [4] the test system is 621-103 (TSC2-rescued). Described as above. Conditions: serum: 10% FBS, 72 h.

With `CC(C)C[C@@H](C=O)NC(=O)[C@H](CC(C)C)NC(=O)[C@H](CC(C)C)NC(=O)OCc1ccccc1` [MG132], the relative viability in test [1] (0.0128 nM) stood at 0.611; in test [1] (0.064 nM) it was 0.586; in test [1] (0.32 nM), 0.383; in test [1] (1.6 nM) it was 0.272; in test [1] (8 nM) it was 0.148; in test [1] (40 nM), 0.00944. The relative viability in test [1] (200 nM) worked out at 0.00319; in test [1] (1000 nM) it was 0.00253; in test [1] (5000 nM) it was 0.0116; in test [2] (0.0128 nM), 0.846; in test [2] (0.064 nM), 0.0534; in test [2] (0.32 nM), 0.0466. Also, the relative viability in test [2] (1.6 nM) amounted to 0.00704; in test [2] (8 nM) it was 0.00406; in test [2] (40 nM) it was 0.00242; in test [2] (200 nM) it was 0.00153; in test [2] (1000 nM), 0.000971; in test [2] (5000 nM), 0.00561.
With `Cc1ccc(NC(=O)c2ccc(CN3CCN(C)CC3)cc2)cc1Nc1nc(-c2cccnc2)cs1` [Masitinib(AB1010)], the relative viability worked out at 0.869 in test [1] (0.0128 nM); 0.9 in test [1] (0.064 nM); 0.886 in test [1] (0.32 nM); 0.951 in test [1] (1.6 nM); 0.909 in test [1] (8 nM); 0.82 in test [1] (40 nM). Moreover, the relative viability in test [1] (200 nM) turned out to be 0.683; in test [1] (1000 nM), 0.277; in test [1] (5000 nM) it was 0.0135; in test [2] (0.0128 nM), 1.09; in test [2] (0.064 nM) it was 1.21; in test [2] (0.32 nM), 1.16. For the same molecule, the relative viability in test [2] (1.6 nM) stood at 1.18; in test [2] (8 nM), 1.09; in test [2] (40 nM), 1.19; in test [2] (200 nM), 0.96; in test [2] (1000 nM), 0.156; in test [2] (5000 nM), 0.0043.
As for `Nc1ccccc1NC(=O)c1ccc(CNc2nccc(-c3cccnc3)n2)cc1` [Mocetinostat], the relative viability in test [1] (0.0128 nM) is 0.964; in test [1] (0.064 nM), 0.98; in test [1] (0.32 nM) it was 0.857; in test [1] (1.6 nM) it was 0.954; in test [1] (8 nM), 0.735; in test [1] (40 nM), 0.401. For the same molecule, the relative viability amounted to 0.174 in test [1] (200 nM); 0.084 in test [1] (1000 nM); 0.00442 in test [1] (5000 nM); 1.24 in test [2] (0.0128 nM); 1.09 in test [2] (0.064 nM); 1.05 in test [2] (0.32 nM). Moreover, the relative viability in test [2] (1.6 nM) was determined as 1.02; in test [2] (8 nM), 0.951; in test [2] (40 nM) it was 0.578; in test [2] (200 nM), 0.0241; in test [2] (1000 nM), 0.00165; in test [2] (5000 nM) it was 0.00203.
With `Cc1ccc([N+](=O)[O-])cc1S(=O)(=O)N(C)/N=C/c1cnc2ccc(Br)cn12` [PIK-75 Hydrochloride], the relative viability in test [2] (0.0128 nM) stood at 0.512; in test [2] (0.064 nM), 0.42; in test [2] (0.32 nM) it was 0.371; in test [2] (1.6 nM), 0.417; in test [2] (8 nM) it was 0.126; in test [2] (40 nM) it was 0.00679. Moreover, the figures for the relative viability in test [2] (200 nM), in test [2] (1000 nM) and in test [2] (5000 nM) were 0.00475, 0.00356 and 0.00221, respectively.
With `Cc1[nH]c2ccccc2c1CCNCc1ccc(/C=C/C(=O)NO)cc1` [Panobinostat (LBH589)], the relative viability in test [1] (0.0128 nM) is 1.34; in test [1] (0.064 nM) it was 0.935; in test [1] (0.32 nM) it was 1.1; in test [1] (1.6 nM), 0.909; in test [1] (8 nM), 0.458; in test [1] (40 nM) it was 0.228. Besides, the relative viability came to 0.0101 in test [1] (200 nM); 0.00297 in test [1] (1000 nM); 0.00203 in test [1] (5000 nM); 1.08 in test [2] (0.0128 nM); 1.02 in test [2] (0.064 nM); 0.955 in test [2] (0.32 nM). The relative viability came out at 0.779 in test [2] (1.6 nM); 0.0132 in test [2] (8 nM); 0.00793 in test [2] (40 nM); 0.0069 in test [2] (200 nM); 0.00422 in test [2] (1000 nM); 0.00261 in test [2] (5000 nM).
Turning to `CO[C@H]1C[C@@H]2CC[C@@H](C)[C@@](O)(O2)C(=O)C(=O)N2CCCC[C@H]2C(=O)O[C@H]([C@H](C)C[C@@H]2CC[C@@H](O)[C@H](OC)C2)CC(=O)[C@H](C)/C=C(\C)[C@@H](O)[C@@H](OC)C(=O)[C@H](C)C[C@H](C)/C=C/C=C/C=C/1C` [Rapamycin(Sirolimus)], the relative viability turned out to be 0.506 in test [1] (0.0128 nM); 0.495 in test [1] (0.064 nM); 0.584 in test [1] (0.32 nM); 0.441 in test [1] (1.6 nM); 0.385 in test [1] (8 nM); 0.388 in test [1] (40 nM). The relative viability was 0.254 in test [1] (200 nM); 0.277 in test [1] (1000 nM); 0.222 in test [1] (5000 nM); 0.874 in test [2] (0.0128 nM); 0.825 in test [2] (0.064 nM); 0.847 in test [2] (0.32 nM). Further, the relative viability amounted to 0.773 in test [2] (1.6 nM); 0.818 in test [2] (8 nM); 0.841 in test [2] (40 nM); 0.593 in test [2] (200 nM); 0.466 in test [2] (1000 nM); 0.364 in test [2] (5000 nM).
Regarding `CCS(=O)(=O)c1cccc(-c2cc(C(=O)NC3CCN(C)CC3)c(C)c3[nH]c4ncc(C)cc4c23)c1` [TAK-901], the relative viability amounted to 94.4 ± 2% in test [3] (0.0001 µM); 98.3 ± 4.1% in test [3] (0.001 µM); 90 ± 2.7% in test [3] (0.01 µM); 75.451 ± 0.045% in test [3] (0.1 µM); 45.4 ± 2% in test [3] (1 µM); 7.72 ± 0.56% in test [3] (10 µM). In addition, the relative viability stood at 108 ± 2.1% in test [4] (0.0001 µM); 97 ± 2% in test [4] (0.001 µM); 81.4 ± 1.8% in test [4] (0.01 µM); 72.5 ± 1.6% in test [4] (0.1 µM); 28.2 ± 2.3% in test [4] (1 µM); 5.6 ± 0.7% in test [4] (10 µM). The relative viability amounted to 0.561 in test [2] (0.0128 nM); 0.0956 in test [2] (0.064 nM); 0.0821 in test [2] (0.32 nM); 0.0562 in test [2] (1.6 nM); 0.0574 in test [2] (8 nM); 0.0411 in test [2] (40 nM). Also, the relative viability amounted to 0.00479 in test [2] (200 nM), 0.00175 in test [2] (1000 nM) and 0.0045 in test [2] (5000 nM).
